Source: patent publication US12377175B2, “Trifunctional constructs with tunable pharmacokinetics useful in imaging and anti-tumor therapies” (Cornell University, priority 2016, dated 2025)

How the values were obtained:
[1] = test system: LNCaP xenograft tumor-bearing mice; experiment: Biodistribution studies of 177Lu-labeled ligands in LNCaP xenograft mice; assay type: in vivo, mouse; settings: corresponding 177Lu-labeled compound; 4 h p.i. (a)
Method: (§1) Inoculation of mice with xenografts: All animal studies were approved by the Institutional Animal Care and Use Committee of Weill Cornell Medicine and were undertaken in accordance with the guidelines set forth by the USPHS Policy on Humane Care and Use of Laboratory Animals. Animals were housed under standard conditions in approved facilities with 12 h light/dark cycles. Food and water was provided ad libitum throughout the course of the studies. Hairless male nu/nu mice were purchased from the Jackson Laboratory. For inoculation in mice, LNCaP cells were suspended at 4×10^7 cells/mL in a 1:1 mixture of PBS:Matrigel (BD Biosciences). Each mouse was injected in the left flank with 0.25 mL of the cell suspension. The mice were imaged when the tumors reached approximately 200-400 mm^3, while biodistributions were conducted when tumors were in the range 100-400 mm^3.
Biodistribution studies of 177Lu-labeled ligands in LNCaP xenograft mice: LNCaP xenograft tumor-bearing mice (5 per time point per compound) were injected intravenously with a bolus injection of 348-851 kBq (9.4-23 μCi) and 37-50 ng ([…]) of each ligand. The mice were sacrificed at 4, 24 and 96 h post injection. A blood sample was removed, and a full biodistribution study was conducted on the following organs (with contents): heart, lungs, liver, small intestine, large intestine, stomach, spleen, pancreas, kidneys, muscle, bone and tumor. Tissues were weighed and counted on a 2470 Wizard^2 Automatic Gamma Counter (Perkin Elmer). Counts were corrected for decay and for activity injected, and tissue uptake was expressed as percent injected dose per gram (% ID/g). Standard error measurement was calculated for each data point.

[2] = test system: LNCaP xenograft tumor-bearing mice; experiment: PET/CT imaging of 66Ga-RPS ligands in LNCaP xenograft mice; assay type: in vivo, mouse; settings: 66Ga PET/CT; for maximum uptake in the tumor (image-derived): over 1, 3, 6 and 24 h post injection
Method: as §1
Imaging of ^66Ga-RPS ligands in LNCaP xenograft mice: LNCaP xenograft tumor-bearing mice (2-3 per compound) injected intravenously with a bolus injection of 0.56-5.4 MBq (15-145 μCi) of the ^66Ga-labeled ligand. The specific activity of the tracers was in the range 14.8-47 MBq/μmol (0.4-1.27 mCi/μmol). The mice were imaged using PET/CT (Inveon™; Siemens Medical Solutions, Inc.) at 1, 3, 6 and 24 h post-injection following inhalation anesthetization with isoflurane. Total acquisition time was 30 min for the 1 h, 3 h and 6 h images, and 60 min for 24 h time point. A CT scan was obtained immediately before the acquisition for both anatomical co-registration and attenuation correction. Images were reconstructed using the Inveon™ software supplied by the vendor. Image-derived tumor and kidney uptake was estimated by comparison to a 10% injected dose […] standard introduced into the imaging field of view. The standard was prepared by dilution of 10% of the injected activity to 1 mL with saline. Volumes of interest (VOIs) were drawn with the aid of the CT and confirmed by PET. The contents of the VOIs were integrated and the calculated counts were converted to […] by direct comparison to the aforementioned standard following correction for activity injected.

| Structure (SMILES) | Max. Tumor Uptake [1] | time of maximum uptake in the tumor [2] | tumor uptake (image-derived) ([2]; 24 h post injection) | maximum uptake in the tumor (image-derived) [2] | other results |
| --- | --- | --- | --- | --- | --- |
| O=C(O)CC[C@H](NC(=O)N[C@@H](CCCCNC(=O)Nc1cccc(-c2cn(CCOCCOCCOCCC(=O)N[C@@H](CCCCNC(=S)Nc3ccc(CC4CN(CC(=O)O)CCN(CC(=O)O)CCN(CC(=O)O)CCN4CC(=O)O)cc3)C(=O)N[C@@H](CCCCNC(=O)Cc3ccc(I)cc3)C(=O)O)nn2)c1)C(=O)O)C(=O)O (stereo partly drawn) [RPS-063, (((1S)-1-carboxy-5-(3-(3-(1-((14S,17S)-17-carboxy-24-(4-iodophenyl)-12,15,23-trioxo-14-(4-(3-(4-((1,4,7,10-tetrakis(carboxymethyl)-1,4,7,10-tetraazacyclododecan-2-yl)methyl)phenyl)thioureido)butyl)-3,6,9-trioxa-13,16,22-triazatetracosyl)-1H-1,2,3-triazol-4-yl)phenyl)ureido)pentyl)carbamoyl)-L-glutamic acid] | 30.0 ± 6.9 % ID/g | – | – | – | – |
| O=C([O-])CN1CCN(CC(=O)[O-])CCN(CC(=O)O)C(Cc2ccc(NC(=S)NCCCC[C@H](NC(=O)CCOCCOCCOCCOCCOCCOCCOCCOCCn3cc(-c4cccc(NC(=O)NCCCC[C@H](NC(=O)N[C@@H](CCC(=O)O)C(=O)O)C(=O)O)c4)nn3)C(=O)N[C@@H](CCCCNC(=O)Cc3ccc(I)cc3)C(=O)O)cc2)CN(CC(=O)[O-])CC1.[66Ga+3] (stereo partly shown) [66Ga-RPS-066] | – | 3 h | 5.5±0.4 % ID/cm^3 | 7.8±0.7 % ID/cm^3 | kidney uptake (image-derived) ([2]; 24 h post injection): 0.2±0.1 % ID/cm^3 |
| O=C([O-])CN1CCN(CC(=O)[O-])CCN(CC(=O)O)C(Cc2ccc(NC(=S)NCCCC[C@H](NC(=O)CCOCCOCCOCCOCCOCCOCCn3cc(-c4cccc(NC(=O)NCCCC[C@H](NC(=O)N[C@@H](CCC(=O)O)C(=O)O)C(=O)O)c4)nn3)C(=O)N[C@@H](CCCCNC(=O)Cc3ccc(I)cc3)C(=O)O)cc2)CN(CC(=O)[O-])CC1.[66Ga+3] (stereo partly shown) [66Ga-RPS-069] | – | – | 7.0±3.9 % ID/cm^3 | – | – |
| O=C([O-])CN1CCN(CC(=O)[O-])CCN(CC(=O)O)C(Cc2ccc(NC(=S)NCCCC[C@H](NC(=O)CCOCCOCCOCCn3cc(-c4cccc(NC(=O)NCCCC[C@H](NC(=O)N[C@@H](CCC(=O)O)C(=O)O)C(=O)O)c4)nn3)C(=O)N[C@@H](CCCCNC(=O)Cc3ccc(I)cc3)C(=O)O)cc2)CN(CC(=O)[O-])CC1.[66Ga+3] (stereo partly shown) [66Ga-RPS-063] | – | 6 h | 7.9±3.0 % ID/cm^3 | 9.5±2.4 % ID/cm^3 | – |
| O=C(O)CC[C@H](NC(=O)N[C@@H](CCCCNC(=O)Nc1cccc(-c2cn(CCOCCOCCOCCOCCOCCOCCOCCOCCC(=O)N[C@@H](CCCCNC(=S)Nc3ccc(CC4CN(CC(=O)O)CCN(CC(=O)O)CCN(CC(=O)O)CCN4CC(=O)O)cc3)C(=O)N[C@@H](CCCCNC(=O)Cc3ccc(I)cc3)C(=O)O)nn2)c1)C(=O)O)C(=O)O (stereo partly drawn) [RPS-066, (((1S)-1-carboxy-5-(3-(3-(1-((29S,32S)-32-carboxy-39-(4-iodophenyl)-27,30,38-trioxo-29-(4-(3-(4-((1,4,7,10-tetrakis(carboxymethyl)-1,4,7,10-tetraazacyclododecan-2-yl)methyl)phenyl)thioureido)butyl)-3,6,9,12,15,18,21,24-octaoxa-28,31,37-triazanonatriacontyl)-1H-1,2,3-triazol-4-yl)phenyl)ureido)pentyl)carbamoyl)-L-glutamic acid] | 18.7 ± 1.1 % ID/g | – | – | – | – |
| O=C(O)CCC(NC(=O)NC(CCCCNC(=O)C(Cc1ccc2ccccc2c1)NC(=O)C1CCC(CNC(=O)CN2CCN(CC(=O)O)CCN(CC(=O)O)CCN(CC(=O)O)CC2)CC1)C(=O)O)C(=O)O (stereo not shown) [66Ga-PSMA-617, metal not drawn, reference compound] | – | 1 h | – | 3.1±0.4 % ID/cm^3 | maximum kidney uptake (image-derived) [2]: 0.4±0.1 % ID/cm^3; kidney uptake (image-derived) ([2]; 24 h post injection): 0.1±0.1 % ID/cm^3 |
| O=C(O)CCC(NC(=O)NC(CCCCNC(=O)Nc1cccc(-c2cnnn2CC(=O)NC(CCCCNC(=S)Nc2ccc(CC3CN(CC(=O)O)CCN(CC(=O)O)CCN(CC(=O)O)CCN3CC(=O)O)cc2)C(=O)NC(CCCCNC(=O)Cc2ccc(I)cc2)C(=O)O)c1)C(=O)O)C(=O)O (stereo not shown) [66Ga-RPS-068, metal not drawn] | – | 3 h | 8.3±2.8 % ID/cm^3 | 9.7±2.0 % ID/cm^3 | – |
| O=C([O-])CN1CCN(CC(=O)[O-])CCN(CC(=O)O)C(Cc2ccc(NC(=S)NCCCC[C@H](NC(=O)CCOCCOCCOCCOCCn3cc(-c4cccc(NC(=O)NCCCC[C@H](NC(=O)N[C@@H](CCC(=O)O)C(=O)O)C(=O)O)c4)nn3)C(=O)N[C@@H](CCCCNC(=O)Cc3ccc(I)cc3)C(=O)O)cc2)CN(CC(=O)[O-])CC1.[66Ga+3] (stereo partly shown) [66Ga-RPS-061] | – | – | 6.1±1.1 % ID/cm^3 | – | kidney uptake (image-derived) ([2]; 1 h post injection): 10.5±2.1 % ID/cm^3 |
| O=C(O)CC[C@H](NC(=O)N[C@@H](CCCCNC(=O)Nc1cccc(-c2cn(CCOCCOCCOCCOCCC(=O)N[C@@H](CCCCNC(=S)Nc3ccc(CC4CN(CC(=O)O)CCN(CC(=O)O)CCN(CC(=O)O)CCN4CC(=O)O)cc3)C(=O)N[C@@H](CCCCNC(=O)Cc3ccc(I)cc3)C(=O)O)nn2)c1)C(=O)O)C(=O)O (stereo partly drawn) [RPS-061, (((1S)-1-carboxy-5-(3-(3-(1-((17S,20S)-20-carboxy-27-(4-iodophenyl)-15,18,26-trioxo-17-(4-(3-(4-((1,4,7,10-tetrakis(carboxymethyl)-1,4,7,10-tetraazacyclododecan-2-yl)methyl)phenyl)thioureido)butyl)-3,6,9,12-tetraoxa-16,19,25-triazaheptacosyl)-1H-1,2,3-triazol-4-yl)phenyl)ureido)pentyl)carbamoyl)-L-glutamic acid] | 20.4 ± 3.1 % ID/g | – | – | – | – |
| O=C(O)CC[C@H](NC(=O)N[C@@H](CCCCNC(=O)Nc1cccc(-c2cnnn2CCOCCOCCOCCOCCOCCOCCOCCOCCOCCOCCOCCOCCC(=O)N[C@@H](CCCCNC(=S)Nc2ccc(CC3CN(CC(=O)O)CCN(CC(=O)O)CCN(CC(=O)O)CCN3CC(=O)O)cc2)C(=O)N[C@@H](CCCCNC(=O)Cc2ccc(I)cc2)C(=O)O)c1)C(=O)O)C(=O)O (stereo partly drawn) [RPS-067, (((1S)-1-carboxy-5-(3-(3-(1-((41S,44S)-44-carboxy-51-(4-iodophenyl)-39,42,50-trioxo-41-(4-(3-(4-((1,4,7,10-tetrakis(carboxymethyl)-1,4,7,10-tetraazacyclododecan-2-yl)methyl)phenyl)thioureido)butyl)-3,6,9,12,15,18,21,24,27,30,33,36-dodecaoxa-40,43,49-triazahenpentacontyl)-1H-1,2,3-triazol-5-yl)phenyl)ureido)pentyl)carbamoyl)-L-glutamic acid] | 7.6 ± 1.2 % ID/g | – | – | – | – |
| O=C(O)CC[C@H](NC(=O)N[C@@H](CCCCNC(=O)Nc1cccc(-c2cn(CCOCCOCCOCCOCCOCCOCCC(=O)N[C@@H](CCCCNC(=S)Nc3ccc(CC4CN(CC(=O)O)CCN(CC(=O)O)CCN(CC(=O)O)CCN4CC(=O)O)cc3)C(=O)N[C@@H](CCCCNC(=O)Cc3ccc(I)cc3)C(=O)O)nn2)c1)C(=O)O)C(=O)O (stereo partly drawn) [RPS-069, (((1S)-1-carboxy-5-(3-(3-(1-((23S,26S)-26-carboxy-33-(4-iodophenyl)-21,24,32-trioxo-23-(4-(3-(4-((1,4,7,10-tetrakis(carboxymethyl)-1,4,7,10-tetraazacyclododecan-2-yl)methyl)phenyl)thioureido)butyl)-3,6,9,12,15,18-hexaoxa-22,25,31-triazatritriacontyl)-1H-1,2,3-triazol-4-yl)phenyl)ureido)pentyl)carbamoyl)-L-glutamic acid] | 17.0 ± 2.1 % ID/g | – | – | – | – |
